For twelve compounds, IC50 results are on record in patent US7872018B2, “Compounds and methods for kinase modulation, and indications therefor” (Plexxikon, Inc., priority 2006, dated 2011).

A word on the IC50: it is the concentration that inhibits the measured activity by half.

One assay has as its target Kdr (Homo sapiens, UniProt P35968). The assay is described as follows: Kdr kinase activity assay. The class given is biochemical. The note with it: under the test conditions employed; read-out: IC50 toward kinase Kdr.
Another assay deals with T1, Fms (Homo sapiens, UniProt P07333).
T1 construct: purchased Upstate Biotech 14-551
T1 sequence (P07333 20-972): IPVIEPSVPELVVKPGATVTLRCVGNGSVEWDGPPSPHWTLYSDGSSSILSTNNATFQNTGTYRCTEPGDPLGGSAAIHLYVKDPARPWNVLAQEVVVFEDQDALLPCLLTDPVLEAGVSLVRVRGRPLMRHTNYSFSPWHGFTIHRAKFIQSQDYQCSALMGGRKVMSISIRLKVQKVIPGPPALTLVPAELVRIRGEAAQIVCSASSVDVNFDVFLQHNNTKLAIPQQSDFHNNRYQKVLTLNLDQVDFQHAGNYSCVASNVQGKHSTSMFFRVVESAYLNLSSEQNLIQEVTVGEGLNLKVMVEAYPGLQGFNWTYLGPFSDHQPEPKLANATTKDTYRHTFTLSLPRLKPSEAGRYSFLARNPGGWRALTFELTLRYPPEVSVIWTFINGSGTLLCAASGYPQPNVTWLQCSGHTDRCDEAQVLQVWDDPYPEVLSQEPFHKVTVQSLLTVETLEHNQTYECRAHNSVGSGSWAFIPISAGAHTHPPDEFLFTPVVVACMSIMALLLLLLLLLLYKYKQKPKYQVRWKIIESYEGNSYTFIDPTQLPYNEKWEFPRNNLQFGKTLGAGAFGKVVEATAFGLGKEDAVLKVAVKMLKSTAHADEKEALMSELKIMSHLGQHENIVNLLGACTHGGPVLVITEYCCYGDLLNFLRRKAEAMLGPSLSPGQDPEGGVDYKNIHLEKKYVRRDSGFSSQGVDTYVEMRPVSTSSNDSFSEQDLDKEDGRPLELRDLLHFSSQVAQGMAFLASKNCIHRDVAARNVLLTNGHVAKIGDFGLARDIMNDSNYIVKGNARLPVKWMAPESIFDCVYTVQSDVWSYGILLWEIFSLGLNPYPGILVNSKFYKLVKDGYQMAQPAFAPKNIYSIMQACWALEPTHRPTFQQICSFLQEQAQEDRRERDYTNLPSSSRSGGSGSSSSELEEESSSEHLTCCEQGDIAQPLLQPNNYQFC
The assay is described as follows: Fms biochemical assay (AlphaScreen or 33P-ATP). Conditions: under the test conditions employed; read-out: IC50 toward kinase Fms. From the text: Each sample was at 5% DMSO.
Background: Bead proximity is the source of the signal in Alpha formats.

In a further assay the target is B-Raf V600E (Homo sapiens, UniProt P15056, V600E). The assay is described as follows: B-Raf V600E kinase activity assay. The class given is biochemical. Conditions: under the test conditions employed; read-out: IC50 toward kinase B-Raf V600E.
Chain of B-Raf V600E (P15056 whole entry V600E): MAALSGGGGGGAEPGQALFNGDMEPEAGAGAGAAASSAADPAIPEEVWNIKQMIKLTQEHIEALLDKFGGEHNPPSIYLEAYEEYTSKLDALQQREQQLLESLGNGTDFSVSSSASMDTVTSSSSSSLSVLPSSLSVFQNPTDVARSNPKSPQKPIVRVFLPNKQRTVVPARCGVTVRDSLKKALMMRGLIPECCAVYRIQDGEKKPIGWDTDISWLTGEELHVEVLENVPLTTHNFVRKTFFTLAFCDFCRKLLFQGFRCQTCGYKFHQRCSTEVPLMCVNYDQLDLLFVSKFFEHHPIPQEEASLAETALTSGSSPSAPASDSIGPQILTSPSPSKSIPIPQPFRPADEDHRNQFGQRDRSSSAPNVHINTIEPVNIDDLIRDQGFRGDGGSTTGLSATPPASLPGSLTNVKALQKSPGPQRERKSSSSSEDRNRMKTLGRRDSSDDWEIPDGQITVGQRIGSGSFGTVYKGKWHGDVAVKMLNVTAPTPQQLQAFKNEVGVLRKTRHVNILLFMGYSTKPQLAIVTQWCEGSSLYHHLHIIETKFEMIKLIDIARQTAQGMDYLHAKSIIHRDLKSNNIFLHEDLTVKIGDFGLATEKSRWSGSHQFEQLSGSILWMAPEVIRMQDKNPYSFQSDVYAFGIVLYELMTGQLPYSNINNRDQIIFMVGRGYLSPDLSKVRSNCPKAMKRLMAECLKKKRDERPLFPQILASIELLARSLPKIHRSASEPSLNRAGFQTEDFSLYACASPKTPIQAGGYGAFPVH
In a further assay the target is T2, Kit (Homo sapiens, UniProt P10721).
T2 construct: P1332.N6 BI PTP KIT M552-K948-X COD; made in house; host or cells: E. coli BL21(DE3)RIL, co-expressed with PTP1B
T2 sequence (P10721 552-948): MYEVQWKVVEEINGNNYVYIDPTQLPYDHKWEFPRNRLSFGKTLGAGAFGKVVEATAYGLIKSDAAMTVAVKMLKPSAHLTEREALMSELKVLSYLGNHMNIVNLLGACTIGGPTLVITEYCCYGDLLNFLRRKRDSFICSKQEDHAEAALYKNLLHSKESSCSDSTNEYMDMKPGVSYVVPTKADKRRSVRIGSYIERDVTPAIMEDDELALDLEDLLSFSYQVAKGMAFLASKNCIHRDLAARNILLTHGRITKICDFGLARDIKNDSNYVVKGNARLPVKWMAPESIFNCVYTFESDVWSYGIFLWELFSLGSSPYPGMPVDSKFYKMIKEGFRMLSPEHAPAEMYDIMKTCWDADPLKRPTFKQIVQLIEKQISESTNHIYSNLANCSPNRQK
The assay is described as follows: c-kit biochemical assay (AlphaScreen or 33P-ATP). Conditions: under the test conditions employed; read-out: IC50 toward kinase Kit. The method, then: C-kit kinase was at 1 ng per sample.
The c-kit enzyme used in the above assay was either obtained from Cell Signaling Technology (Cat. #7754) or was prepared as follows: A plasmid encoding kit (DNA and encoded protein sequences shown below) was engineered using common polymerase chain reaction (PCR) methods. Complementary DNA cloned from various human tissues were purchased from Invitrogen, and these were used as substrates in the PCR reactions. Specific custom synthetic oligonucleotide primers were designed to initiate the PCR product, and also to provide the appropriate restriction enzyme cleavage sites for ligation with the plasmids. The entire sequence encoding the enzyme was made through a gene synthesis procedure, using custom synthetic oligonucleotides covering the entire coding sequence (Invitrogen, see below).

The target of a further assay is T3, TrkA (Homo sapiens, UniProt P04629).
T3 construct: purchased Upstate Biotech 14-571
Nature of the assay: TrkA biochemical assay (AlphaScreen). Conditions: under the test conditions employed; read-out: IC50 toward kinase TrkA. The method, then: Compounds tested were dissolved in DMSO (1 μL) and added to a white 384-well plate (Costar #3705). […] Each sample was at 5% DMSO. The plate was then incubated for 40 minutes at room temperature.

In the next assay the target is HGK (Homo sapiens, UniProt O95819). Nature of the assay: HGK (MAP4K4) biochemical assay (AlphaScreen). Conditions: under the test conditions employed; read-out: IC50 toward kinase HGK. The method, then: Substrate was 10 nM biotin-ERM (T567/T564/T558, Cell Signaling, Inc., cat#1344). MAP4K4 kinase was at 0.5 ng per sample. After incubation of the kinase reaction for 40 min at room temperature, 5 μl of donor beads and protein A acceptor beads (Perkin Elmer Life Science, cat#67606017) at final concentration 1 μg/ml in stop buffer (20 mM Tris, pH 7.4, 200 mM Nacl, 100 mM EDTA, 0.03% BSA) was added, along with Phospho-ERM Antibody (T567/T564/T558, Cell Signaling, Inc., cat#3141) at 1:1000 dilution. […] Phosphorylated substrate results in binding of the antibody which binds to protein A acceptor bead and association of the donor and acceptor beads is such that the signal correlates with kinase activity.
Chain of HGK (O95819 whole entry): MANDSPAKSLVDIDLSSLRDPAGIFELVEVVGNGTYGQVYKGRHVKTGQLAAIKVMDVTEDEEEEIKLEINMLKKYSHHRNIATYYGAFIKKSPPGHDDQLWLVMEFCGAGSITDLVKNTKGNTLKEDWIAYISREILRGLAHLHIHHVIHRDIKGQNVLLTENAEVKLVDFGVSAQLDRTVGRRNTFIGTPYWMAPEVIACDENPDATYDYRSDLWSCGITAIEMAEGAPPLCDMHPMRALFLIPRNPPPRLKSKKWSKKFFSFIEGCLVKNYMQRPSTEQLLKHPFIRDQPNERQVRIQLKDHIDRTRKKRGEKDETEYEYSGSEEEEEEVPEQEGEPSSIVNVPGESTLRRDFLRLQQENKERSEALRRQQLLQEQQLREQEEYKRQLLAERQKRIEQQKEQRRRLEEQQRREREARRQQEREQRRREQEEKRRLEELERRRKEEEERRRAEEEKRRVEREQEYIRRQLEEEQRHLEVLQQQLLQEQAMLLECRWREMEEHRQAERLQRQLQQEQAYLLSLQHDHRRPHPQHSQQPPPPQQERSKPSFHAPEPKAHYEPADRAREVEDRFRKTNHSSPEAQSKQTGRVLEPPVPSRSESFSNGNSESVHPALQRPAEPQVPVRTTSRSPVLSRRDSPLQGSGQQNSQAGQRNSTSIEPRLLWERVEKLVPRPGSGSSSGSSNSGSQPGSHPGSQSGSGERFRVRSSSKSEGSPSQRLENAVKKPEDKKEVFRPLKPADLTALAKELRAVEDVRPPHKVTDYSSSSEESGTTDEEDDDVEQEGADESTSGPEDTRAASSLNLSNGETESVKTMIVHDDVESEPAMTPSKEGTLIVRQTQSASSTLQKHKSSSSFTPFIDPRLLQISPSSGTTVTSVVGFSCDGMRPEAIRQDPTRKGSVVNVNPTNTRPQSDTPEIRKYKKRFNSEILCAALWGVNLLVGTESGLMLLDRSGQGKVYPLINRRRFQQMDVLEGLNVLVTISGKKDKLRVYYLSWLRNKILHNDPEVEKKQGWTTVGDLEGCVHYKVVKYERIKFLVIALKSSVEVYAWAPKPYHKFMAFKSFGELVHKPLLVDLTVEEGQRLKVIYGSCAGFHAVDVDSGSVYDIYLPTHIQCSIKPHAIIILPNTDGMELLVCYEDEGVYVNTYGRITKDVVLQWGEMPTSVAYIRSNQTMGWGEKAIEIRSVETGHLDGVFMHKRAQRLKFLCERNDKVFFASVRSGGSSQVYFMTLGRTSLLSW

The target of the next assay is B-Raf (Homo sapiens, UniProt P15056). Nature of the assay: B-Raf kinase activity assay. Conditions: under the test conditions employed; read-out: IC50 toward kinase B-Raf. The class given is biochemical.
Chain of B-Raf (P15056 whole entry): as the sequence (P15056 whole entry V600E) above, with E600V counted along it

Chain of Kdr (P35968 20-1356): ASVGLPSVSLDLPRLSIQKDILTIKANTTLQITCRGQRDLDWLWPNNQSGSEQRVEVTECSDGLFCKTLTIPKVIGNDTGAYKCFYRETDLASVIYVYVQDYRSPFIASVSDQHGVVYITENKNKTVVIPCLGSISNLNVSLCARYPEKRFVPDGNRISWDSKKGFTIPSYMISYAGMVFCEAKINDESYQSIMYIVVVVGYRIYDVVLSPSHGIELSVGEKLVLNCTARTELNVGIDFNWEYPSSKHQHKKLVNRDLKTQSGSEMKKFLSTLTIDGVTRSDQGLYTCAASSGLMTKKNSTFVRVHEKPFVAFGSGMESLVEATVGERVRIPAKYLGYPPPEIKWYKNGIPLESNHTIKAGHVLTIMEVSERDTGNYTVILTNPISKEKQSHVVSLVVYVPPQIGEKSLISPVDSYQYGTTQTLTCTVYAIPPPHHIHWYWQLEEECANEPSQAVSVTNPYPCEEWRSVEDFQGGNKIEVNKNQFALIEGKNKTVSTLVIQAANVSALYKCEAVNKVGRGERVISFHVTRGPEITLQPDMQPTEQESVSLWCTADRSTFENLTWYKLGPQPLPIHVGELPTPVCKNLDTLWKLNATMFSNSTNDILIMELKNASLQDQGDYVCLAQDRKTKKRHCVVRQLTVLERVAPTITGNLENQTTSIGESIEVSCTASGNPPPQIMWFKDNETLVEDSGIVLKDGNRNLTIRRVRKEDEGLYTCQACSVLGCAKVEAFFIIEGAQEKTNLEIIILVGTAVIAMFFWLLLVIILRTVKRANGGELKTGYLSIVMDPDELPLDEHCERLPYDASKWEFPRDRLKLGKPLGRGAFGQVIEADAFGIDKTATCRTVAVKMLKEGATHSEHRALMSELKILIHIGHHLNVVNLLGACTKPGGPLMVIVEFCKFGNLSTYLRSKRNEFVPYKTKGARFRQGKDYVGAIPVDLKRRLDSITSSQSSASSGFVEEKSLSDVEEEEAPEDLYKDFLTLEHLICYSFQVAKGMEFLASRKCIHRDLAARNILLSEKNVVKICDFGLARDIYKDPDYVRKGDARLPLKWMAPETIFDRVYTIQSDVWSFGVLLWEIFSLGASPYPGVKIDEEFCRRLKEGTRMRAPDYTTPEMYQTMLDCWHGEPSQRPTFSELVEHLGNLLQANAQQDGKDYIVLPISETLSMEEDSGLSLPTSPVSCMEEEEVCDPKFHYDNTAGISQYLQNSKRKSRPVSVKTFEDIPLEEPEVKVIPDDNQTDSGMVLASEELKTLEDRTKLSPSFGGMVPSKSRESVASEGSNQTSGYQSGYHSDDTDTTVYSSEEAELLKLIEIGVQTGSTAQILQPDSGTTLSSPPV

As to `COc1cnc2[nH]cc(Cc3c(F)ccc(OCC(F)(F)F)c3Cl)c2c1` [P-2147, 3-[2-Chloro-6-fluoro-3-(2,2,2-trifluoro-ethoxy)-benzyl]-5-methoxy-1H-pyrrolo[2,3-b]pyridine], the concentration for half-maximal inhibition (IC50) at Kdr and at Fms was no more than 10 µM throughout.
For the compound `COc1cc(Cc2c[nH]c3ncccc23)cc(F)c1OCc1ccc(Cl)cc1` [P-1466, 3-[4-(4-Chloro-benzyloxy)-3-fluoro-5-methoxy-benzyl]-1H-pyrrolo[2,3-b]pyridine], the IC50 on B-Raf V600E, at Fms and at Kit was no more than 10 µM in each case.
`COc1cnc2[nH]cc(Cc3cc(F)c(OCc4nc5ccccc5[nH]4)cc3Cl)c2c1` [P-2114, 2-[5-Chloro-2-fluoro-4-(5-methoxy-1H-pyrrolo[2,3-b]pyridin-3-ylmethyl)-phenoxymethyl]-1H-benzoimidazole]: the IC50 at Kdr, at Fms, on TrkA, on HGK and at Kit was no more than 10 µM in each case.
Take `COc1cc(Cc2c[nH]c3ncc(Cl)cc23)c(Cl)cc1OCc1ccc(Cl)cc1F` [P-2167, 5-Chloro-3-[2-chloro-4-(4-chloro-2-fluoro-benzyloxy)-5-methoxy-benzyl]-1H-pyrrolo[2,3-b]pyridine]: the IC50 at Kdr, at Fms and at Kit was no more than 10 µM throughout.
Regarding `COc1cnc2[nH]cc(Cc3c(Cl)ccc(OCC(F)(F)F)c3Cl)c2c1` [P-2153, 3-[2,6-Dichloro-3-(2,2,2-trifluoro-ethoxy)-benzyl]-5-methoxy-1H-pyrrolo[2,3-b]pyridine], the IC50 at Kdr and on Fms was no more than 10 µM each time.
As for `COCCOc1ccc(F)c(Cc2c[nH]c3ncccc23)c1Cl` [P-2158, 3-[2-Chloro-6-fluoro-3-(2-methoxy-ethoxy)-benzyl]-1H-pyrrolo[2,3-b]pyridine], the IC50 on Kdr, on Fms and at Kit was no more than 10 µM throughout.
For `COc1cc(Cc2c[nH]c3ncccc23)cc(Cl)c1OCc1ccc(Cl)cc1` [P-1616, 3-[3-Chloro-4-(4-chloro-benzyloxy)-5-methoxy-benzyl]-1H-pyrrolo[2,3-b]pyridine], the IC50 on Fms and at B-Raf was no more than 10 µM in each case.
On to `COCCOc1cnc2[nH]cc(Cc3cc(F)c(OCc4nc5ccccc5[nH]4)cc3F)c2c1` [P-2176, 2-{2,5-Difluoro-4-[5-(2-methoxy-ethoxy)-1H-pyrrolo[2,3-b]pyridin-3-ylmethyl]-phenoxymethyl}-1H-benzoimidazole], for which the IC50 on Kdr, on Fms, at TrkA, at HGK and on Kit was no more than 10 µM each time.
For `O=C(c1c(F)ccc(OCC(F)(F)F)c1Cl)c1c[nH]c2ncccc12` [P-2150, [2-Chloro-6-fluoro-3-(2,2,2-trifluoro-ethoxy)-phenyl]-(1H-pyrrolo[2,3-b]pyridin-3-yl)-methanone], the IC50 on Kdr and on Fms was no more than 10 µM throughout.
On to `O=C(c1c(F)ccc(OCc2ccccc2)c1F)c1c[nH]c2ncc(Cl)cc12` [P-1825, (3-Benzyloxy-2,6-difluoro-phenyl)-(5-chloro-1H-pyrrolo[2,3-b]pyridin-3-yl)-methanone], for which the half-maximal inhibitory concentration (IC50) on B-Raf is no more than 10 µM.
For the compound `CCOc1cc(Cc2c[nH]c3ncccc23)ccc1OCc1ccc(Cl)cc1` [P-1470, 3-[4-(4-Chloro-benzyloxy)-3-ethoxy-benzyl]-1H-pyrrolo[2,3-b]pyridine], the IC50 at B-Raf V600E, at Fms and on Kit was no more than 10 µM each time.
For the compound `Fc1cc(OCc2nc3ccccc3[nH]2)cc(F)c1Cc1c[nH]c2ncc(Cl)cc12` [P-2105, 2-[4-(5-Chloro-1H-pyrrolo[2,3-b]pyridin-3-ylmethyl)-3,5-difluoro-phenoxymethyl]-1H-benzoimidazole], the IC50 on Kdr, on Fms, at HGK and at Kit was no more than 10 µM throughout.
